Experimental data reported in patent US20220330549A1, “USE OF N-BENZYLBENZAMIDE-BASED COMPOUND AS HERBICIDE” (Northwest A&F University, priority 2020, published 2022).

Legend:
Assay type in all cases: in vivo
Barnyard grass [1] = assay: Herbicidal activity test for indoor pre-emergence soil treatment; set-up: key: level 1-9; higher = more weed remaining vs blank control; conditions: 150 g a.i./ha, visual inspection 21 days after treatment
Method in brief: (§1)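 Compounds were formulated as 10% emulsifiable concentrates and sprayed onto the soil 24 h after sowing, at 150 g(a.i.)/ha. Soil was sandy loam (≤2% organic matter), with seeds under 0.5–2.0 cm cover, per NY/T 1155.3-2006. Visual 1–9 ratings relative to blank control were made after 21 days.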

Piemarker [2] = assay: as above; set-up: key: level 1-9; higher = more weed remaining vs blank control; conditions: 150 g a.i./ha, visual inspection 21 days after treatment
Method in brief: as §1

green bristlegrass [3] = assay: as above; set-up: key: level 1-9; higher = more weed remaining vs blank control; conditions: 150 g a.i./ha, visual inspection 21 days after treatment
Method in brief: as §1

Amaranthus retroflexus [4] = assay: as above; set-up: key: 1-9 levels; higher = more weed remaining vs blank control; conditions: 150 g a.i./ha, visual inspection 21 days after treatment
Method in brief: as §1

Digitaria sanguinalis [5] = assay: as above; set-up: key: 1-9 levels; higher = more weed remaining vs blank control; conditions: 150 g a.i./ha, visual inspection 21 days after treatment
Method in brief: as §1

Humulus scandens [6] = assay: as above; conditions: 150 g a.i./ha, visual inspection 21 days after treatment
Method in brief: as §1

Amaranthus retroflexus [7] = assay: Herbicidal activity test for indoor post-emergence spraying on stems and leaves; set-up: key: grade level by weed remaining vs blank control, e.g. 5 = 10.1-15%; conditions: 150 g a.i./ha, visual inspection 21 days after treatment
Method in brief: (§2)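 Visual inspection at 21 days after treatment gave a level rating, each level defined as a percentage band of the weed remaining in the blank control area. Plants were sprayed on stems and leaves after emergence, following NY/T 1155.4-2006.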

Barnyard grass [8] = assay: as above; set-up: key: grade level by weed remaining vs blank control, e.g. 5 = 10.1-15%; conditions: 150 g a.i./ha, visual inspection 21 days after treatment
Method in brief: as §2

Digitaria sanguinalis [9] = assay: as above; set-up: key: grade level by weed remaining vs blank control, e.g. 5 = 10.1-15%; conditions: 150 g a.i./ha, visual inspection 21 days after treatment
Method in brief: as §2

Humulus scandens [10] = assay: as above; set-up: key: grade level by weed remaining vs blank control, e.g. 5 = 10.1-15%; conditions: 150 g a.i./ha, visual inspection 21 days after treatment
Method in brief: as §2

Piemarker [11] = assay: as above; set-up: key: grade level by weed remaining vs blank control, e.g. 5 = 10.1-15%; conditions: 150 g a.i./ha, visual inspection 21 days after treatment
Method in brief: as §2

green bristlegrass [12] = assay: as above; set-up: key: grade level by weed remaining vs blank control, e.g. 5 = 10.1-15%; conditions: 150 g a.i./ha, visual inspection 21 days after treatment
Method in brief: as §2

Broadleaf weed = assay: Post-emergence herbicidal activity test in a paddy field; set-up: key: level scale; higher level = more weed left vs blank control; conditions: 150 g a.i./ha (penoxsulam control 250 g(a.i.)/h)
Method in brief: (§3)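 Efficacy was visually estimated 15 and 30 days after spraying, grading weed coverage relative to an untreated neighbouring plot (level 2 = 0 to 2.5%, level 9 = 67.6 to 100%). Treatments were 150 g(a.i.)/ha from 10% emulsifiable concentrates applied at the 4-5 leaf rice stage, four repeats of 50 m^2 each.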

Cyperaceae = assay: as above; set-up: key: level scale; higher level = more weed left vs blank control; conditions: 150 g a.i./ha (penoxsulam control 250 g(a.i.)/h)
Method in brief: as §3

Gramineae = assay: as above; set-up: key: level scale; higher level = more weed left vs blank control; conditions: 150 g a.i./ha (penoxsulam control 250 g(a.i.)/h)
Method in brief: as §3

Acalypha australis = assay: Field test for weed control in a corn field; conditions: 150 g a.i./ha, after treatment
Method in brief: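 Post-emergence field trial in a corn field following GB/T 17980.42-2000. Test compounds were formulated as 10% emulsifiable concentrates, diluted in water, and sprayed at 150 g(a.i.)/ha when corn had 2 to 5 leaves, with 4 replicates on 20 m^2 plots. Mesotrione 25% oil dispersion served as the control agent. Weed control was scored on a 1-9 scale.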

Amaranthus retroflexus [13] = assay: Field test for weed control in a corn field; conditions: 150 g a.i./ha, 30 days after treatment
Method in brief: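 Field efficacy trial in a corn field following GB/T 17980.42-2000. Test compounds were formulated as 10% emulsifiable concentrates, diluted in water and sprayed post-emergence when corn had 2 to 5 leaves. Each treatment covered 20 m^2 with 4 replicates. A 25% mesotrione oil dispersion served as control. Damage to Amaranthus retroflexus was rated on a 1-9 scale against untreated blank plots.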

Barnyard grass [14] = assay: Field test for weed control in a corn field; conditions: 150 g a.i./ha, 30 days after treatment
Method in brief: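 Corn-field efficacy trial following GB/T 17980.42-2000. Test compounds were formulated as 10% emulsifiable concentrates, diluted in water and sprayed post-emergence at 150 g(a.i.)/ha when corn had 2 to 5 leaves. Each treatment was replicated 4 times on 20 m^2 plots. Barnyard grass control was rated on a 1-9 damage scale.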

Chenopodium album = assay: Field test for weed control in a corn field; conditions: 150 g a.i./ha, after treatment
Method in brief: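 A corn-field efficacy trial following GB/T 17980.42-2000 tested post-emergence control of Chenopodium album. Test compounds formulated as 10% emulsifiable concentrates were diluted in water and sprayed at 150 g(a.i.)/ha when the corn had 2 leaves to 5 leaves, on 20 m^2 plots with 4 replicates. Herbicidal activity was rated on a 1-9 scale by damage symptoms and severity.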

Convolvulus arvensis = assay: Field test for weed control in a corn field; conditions: 150 g a.i./ha, after treatment
Method in brief: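 Field trial of weed control against Convolvulus arvensis in corn, run following GB/T 17980.42-2000. Test agents were formulated as 10% emulsifiable concentrates and sprayed in water at 150 g(a.i.)/ha when corn plants had 2 to 5 leaves. Each treatment was replicated 4 times on 20 m^2 plots, and 25% mesotrione oil dispersion served as the control agent.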

Digitaria sanguinalis [15] = assay: Field test for weed control in a corn field; conditions: 150 g a.i./ha, after treatment
Method in brief: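 Field trial in a corn field following GB/T 17980.42-2000. Test compounds were formulated as 10% emulsifiable concentrates, diluted in water and sprayed post-emergence at 150 g(a.i.)/ha when corn had 2 to 5 leaves, with 4 replicates on 20 m^2 plots. Control of Digitaria sanguinalis was scored on a 1-9 scale based on weed damage relative to the untreated blank area.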

Portulaca oleracea = assay: Field test for weed control in a corn field; conditions: 150 g a.i./ha, after treatment
Method in brief: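 Field efficacy trial in corn following GB/T 17980.42-2000. Test compounds were prepared as 10% emulsifiable concentrates, diluted in water, and sprayed at 150 g(a.i.)/ha when corn had 2 to 5 leaves after sowing. Plots were 20 m^2 with 4 replicates per treatment. Herbicidal activity was scored on a 1-9 scale from weed damage symptoms and severity.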

Solanum nigrum = assay: Field test for weed control in a corn field; conditions: 150 g a.i./ha, 30 days after treatment
Method in brief: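 Post-emergence weed control was tested in a corn field following GB/T 17980.42-2000. Compounds were made into 10% emulsifiable concentrates, diluted in water and sprayed at 150 g(a.i.)/ha when corn had 2 to 5 leaves after sowing, in 20 m^2 plots with 4 replicates. Effects on Solanum nigrum were graded on a 1-9 scale relative to the blank control area.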

goosegrass = assay: Field test for weed control in a corn field; conditions: 150 g a.i./ha, after treatment
Method in brief: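 Weed control efficacy against goosegrass was tested in a corn field following GB/T 17980.42-2000. Compounds formulated as 10% emulsifiable concentrates were diluted in water and sprayed post-emergence at 150 g(a.i.)/ha when corn had 2 to 5 leaves, with 4 replicates of 20 m^2 plots. Herbicidal activity was rated on a 1-9 scale by damage symptoms and severity.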

green bristlegrass [16] = assay: Field test for weed control in a corn field; conditions: 150 g a.i./ha, after treatment
Method in brief: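 Post-emergence weed control was tested in a corn field following GB/T 17980.42-2000. When the corn had 2 leaves to 5 leaves after sowing, 10% emulsifiable concentrates diluted in water were sprayed at 150 g(a.i.)/ha on 20 m^2 plots, four replicates per treatment. Effects on green bristlegrass were scored on a 1-9 damage scale relative to the blank control area.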

nutgrass flatsedge = assay: Field test for weed control in a corn field; conditions: 150 g a.i./ha, after treatment
Method in brief: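 A corn field efficacy trial following GB/T 17980.42-2000 assessed post-emergence control of nutgrass flatsedge. Test compounds were formulated as 10% emulsifiable concentrates, diluted in water, and sprayed at 150 g(a.i.)/ha when the corn had 2 to 5 leaves. Each treatment had 4 replicates on 20 m^2 plots. Herbicidal activity was graded on a 1-9 scale by damage symptoms and severity.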

Row | Compound | Herbicidal Activity Barnyard grass (Barnyard grass [1]) | Herbicidal Activity Piemarker (Piemarker [2]) | Herbicidal Activity Green bristlegrass (green bristlegrass [3]) | Herbicidal Activity Amaranthus retroflexus (Amaranthus retroflexus [4]) | Herbicidal Activity Digitaria sanguinalis (Digitaria sanguinalis [5]) | Herbicidal Activity Humulus scandens (Humulus scandens [6]) | Herbicidal Activity Amaranthus retroflexus (Amaranthus retroflexus [7]) | Herbicidal Activity Barnyard grass (Barnyard grass [8]) | Herbicidal Activity Digitaria sanguinalis (Digitaria sanguinalis [9]) | Herbicidal Activity Humulus scandens (Humulus scandens [10]) | Herbicidal Activity Piemarker (Piemarker [11]) | Herbicidal Activity Green bristlegrass (green bristlegrass [12]) | Herbicidal activity 15 days after treatment Broadleaf weed (Broadleaf weed) | Herbicidal activity 30 days after treatment Broadleaf weed (Broadleaf weed) | Herbicidal activity 15 days after treatment Cyperaceae (Cyperaceae) | Herbicidal activity 30 days after treatment Cyperaceae (Cyperaceae) | Herbicidal activity 15 days after treatment Gramineae (Gramineae) | Herbicidal activity 30 days after treatment Gramineae (Gramineae) | Post-emergence weed control effect, Acalypha australis (Acalypha australis) | Post-emergence weed control effect, Amaranthus retroflexus (Amaranthus retroflexus [13]) | also measured
1 | COc1ncccc1C(=O)NCc1cccc(Cl)c1 [Compound A91] | 1 | 1 | 1 | 1 | 2 (equivalent to 0 to 2.5% of the weed in the blank control area) | 2 (equivalent to 0 to 2.5% of the weed in the blank control area) | 1 | 1 | 1 | 1 | 1 | 1 | 1 | 1 | 1 | 1 | 2 (equivalent to 0 to 2.5% of the weed in the blank control area) | 2 (equivalent to 0 to 2.5% of the weed in the blank control area) | 2 (equivalent to 0 to 2.5% of the weed in the blank control area) | 1 | Post-emergence weed control effect, Barnyard grass (Barnyard grass [14]): 1; Post-emergence weed control effect, Chenopodium album (Chenopodium album): 1; Post-emergence weed control effect, Convolvulus arvensis (Convolvulus arvensis): 1; Post-emergence weed control effect, Digitaria sanguinalis (Digitaria sanguinalis [15]): 2 (equivalent to 0 to 2.5% of the weed in the blank control area); Post-emergence weed control effect, Portulaca oleracea (Portulaca oleracea): 1; Post-emergence weed control effect, Solanum nigrum (Solanum nigrum): 2 (equivalent to 0 to 2.5% of the weed in the blank control area); Post-emergence weed control effect, Goose grass (goosegrass): 2 (equivalent to 0 to 2.5% of the weed in the blank control area); Post-emergence weed control effect, Green bristlegrass (green bristlegrass [16]): 2 (equivalent to 0 to 2.5% of the weed in the blank control area); Post-emergence weed control effect, Nutgrass flatsedge (nutgrass flatsedge): 2 (equivalent to 0 to 2.5% of the weed in the blank control area)
2 | COc1ncccc1C(=O)NCc1cccc(Cl)c1 [Compound A92] | 1 | 1 | 1 | 1 | 1 | 2 (equivalent to 0 to 2.5% of the weed in the blank control area) | 1 | 1 | 1 | 1 | 1 | 1 | 1 | 1 | 1 | 1 | 2 (equivalent to 0 to 2.5% of the weed in the blank control area) | 2 (equivalent to 0 to 2.5% of the weed in the blank control area) | 2 (equivalent to 0 to 2.5% of the weed in the blank control area) | 1 | Post-emergence weed control effect, Barnyard grass (Barnyard grass [14]): 1; Post-emergence weed control effect, Chenopodium album (Chenopodium album): 1; Post-emergence weed control effect, Convolvulus arvensis (Convolvulus arvensis): 1; Post-emergence weed control effect, Digitaria sanguinalis (Digitaria sanguinalis [15]): 2 (equivalent to 0 to 2.5% of the weed in the blank control area); Post-emergence weed control effect, Portulaca oleracea (Portulaca oleracea): 1; Post-emergence weed control effect, Solanum nigrum (Solanum nigrum): 2 (equivalent to 0 to 2.5% of the weed in the blank control area); Post-emergence weed control effect, Goose grass (goosegrass): 1; Post-emergence weed control effect, Green bristlegrass (green bristlegrass [16]): 2 (equivalent to 0 to 2.5% of the weed in the blank control area); Post-emergence weed control effect, Nutgrass flatsedge (nutgrass flatsedge): 2 (equivalent to 0 to 2.5% of the weed in the blank control area)
